# Assay results: patent publication US10596234B2, “Compositions and methods to inhibit viral replication” (priority 2016, dated 2020)
# Assays:
# IFN-β = IFN-β ELISA, 293T cells stably expressing UL37 infected with Sendai virus; format: cell-based, human; conditions: UL37 expression, SeV infection, 16 hpi
# Method: Commercial cytokine ELISA kits used in this study include: human IFN-β (PBL Assay Science) and human RANTES (R&D Systems). Cytokine levels in the supernatant from cultured cells were assessed according to manufacturer's instruction. Absorbance was determined with FLUOstar Omega (BMG Labtech.).
# RIG-I = biological target: T1, RIG-I (Homo sapiens, UniProt O95786, D580E); assay: In vitro deamidation assay (RIG-I); format: biochemical; conditions: protein purified from E. coli, 2-DGE
# T1 construct: made in house; host or cells: GST-RIG-I: transfected 293T cells; UL37: E. coli
# T1 sequence (O95786 1-925 D580E): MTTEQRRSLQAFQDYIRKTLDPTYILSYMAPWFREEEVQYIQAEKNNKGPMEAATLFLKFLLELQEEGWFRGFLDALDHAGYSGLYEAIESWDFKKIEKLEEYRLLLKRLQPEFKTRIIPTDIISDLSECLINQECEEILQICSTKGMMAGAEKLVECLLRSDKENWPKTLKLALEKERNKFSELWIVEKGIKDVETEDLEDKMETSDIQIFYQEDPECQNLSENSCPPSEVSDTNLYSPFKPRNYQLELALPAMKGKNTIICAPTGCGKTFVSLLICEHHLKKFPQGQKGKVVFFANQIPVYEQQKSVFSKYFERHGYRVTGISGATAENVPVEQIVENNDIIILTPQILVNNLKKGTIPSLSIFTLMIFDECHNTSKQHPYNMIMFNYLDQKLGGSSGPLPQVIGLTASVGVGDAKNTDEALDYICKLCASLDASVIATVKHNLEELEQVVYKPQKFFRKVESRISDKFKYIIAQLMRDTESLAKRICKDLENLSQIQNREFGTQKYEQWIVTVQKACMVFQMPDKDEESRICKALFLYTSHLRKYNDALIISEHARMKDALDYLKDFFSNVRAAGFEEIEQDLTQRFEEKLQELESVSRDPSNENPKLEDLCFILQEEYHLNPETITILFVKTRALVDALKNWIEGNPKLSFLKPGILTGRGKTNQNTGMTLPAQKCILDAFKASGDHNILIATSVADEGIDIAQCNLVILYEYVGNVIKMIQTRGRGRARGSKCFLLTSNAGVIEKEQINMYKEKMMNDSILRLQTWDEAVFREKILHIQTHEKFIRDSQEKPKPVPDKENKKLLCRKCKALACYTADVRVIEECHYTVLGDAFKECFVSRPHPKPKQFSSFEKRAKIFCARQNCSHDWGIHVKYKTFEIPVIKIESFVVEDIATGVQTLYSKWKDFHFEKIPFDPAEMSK
# Method: GST-RIG-I was purified from transfected 293T cells to homogeneity as determined by silver staining. In vitro on-column deamidation of RIG-I was performed as previously reported (He et al., 2015). Briefly, ˜0.2 μg of His-tagged UL37/UL37 (571-1123) expressed and purified from E. coli, and 0.6 μg of GST-RIG-I (bound to glutathione-conjugated agarose) were added to a total volume of 30 μl. The reaction was carried out at 30° C. for 45 min in deamidation buffer (50 mM Tris-HCl, pH 7.5, 100 mM NaCl, 5 mM MgCl2). Protein-bound GST beads were washed with deamidation buffer and GST-RIG-I was eluted with rehydration buffer (6 M Urea, 2 M Thio-urea, 2% CHAPS, 0.5% IPG Buffer, 0.002% bromophenol blue) at room temperature. Samples were then analyzed by two-dimensional gel electrophoresis and immunoblotting.
# cGAS [1] = assay: cGAMP reporter assay (THP1-Lucia); format: cell-based, human; conditions: THP-1 cells transfected with HT-DNA (HT-DNA alone approximately 60 ng)
# Method: THP-1 Cells were transfected with HT-DNA (2 μg/ml) or infected with HSV-1 virus for 6 h. Cell extracts were prepared by heating at 95° C. for 5 min to denature most proteins, and then the precipitated proteins were removed by centrifugation. The supernatant containing cGAMP was delivered to digitonin-permeabilized (2.5 μg/ml for 30 min) THP1-Lucia cells at 37° C. for 30 min. The cells were cultured for another 20 h before Lucia reporter activity was measured according to the manufacturer's instruction (InvivoGen). Pure cGAMP was diluted and used as standard for the assay.
# cGAS [2] = assay: Real-time PCR in THP-1 cells stably expressing UL37, transfected with HT-DNA; format: cell-based, human
# Method: THP-1 or L929 cells were infected with HSV-1 (MOI=5) or stimulated with HT-DNA (2 μg/ml) or cGAMP (2 μg/ml) for 6 h unless specifically indicated otherwise. Cells were washed with cold PBS, and total RNA was extracted by using TRIzol Reagent (Invitrogen). RNA was digested with DNase I (New England Biolabs) to remove genomic DNA. One microgram of total RNA was used for reverse transcription with PrimeScript Reverse Transcriptase (Clontech) according to the manufacturer's instruction. Approximately 0.5% of the cDNA was used as template in each quantitative real-time PCR (qRT-PCR) reaction with SYBR master mix (Applied biosystems).
# Lentivirus production was carried out in 293T cells as described previously. THP-1 or L929 cells were infected with lentivirus containing UL37 or UL37 C819S mutant. After 36 h, THP-1 cells were selected with puromycin at 1 μg/ml and L929 cells were selected with puromycin at 5 μg/ml.
# cGAS [3] = assay: Tandem mass spectrometry quantification of cGAS deamidation; format: biochemical, mouse; conditions: UL37 expression; N196, N377, Q436, Q439
# Method: Purified mcGAS(141-507) was deamidated by purified FLAG-UL37 in vitro. Then the samples were resolved with SDS-PAGE and the mcGAS bands were excised and applied to LC/MS/MS analysis. The analysis of samples was carried out using a Thermo Scientific Q-Exactive hybrid Quadrupole-Orbitrap Mass Spectrometer and a Thermo Dionex UltiMate 3000 RSLCnano System. Peptide mixtures from each sample were loaded onto a peptide trap cartridge at a flow rate of 5 μL/min. The trapped peptides were eluted onto a reversed-phase PicoFrit column (New Objective, Woburn, Mass.) using a linear gradient of acetonitrile (3-36%) in 0.1% formic acid. The elution duration was 120 min at a flow rate of 0.3 μl/min. Eluted peptides from the PicoFrit column were ionized and sprayed into the mass spectrometer, using a Nanospray Flex Ion Source ES071 (Thermo) under the following settings: spray voltage, 2.0 kV, Capillary temperature, 250° C. Other settings were empirically determined. Raw data files were searched against mouse protein sequence database obtained from NCBI website using the Proteome Discoverer 1.4 software (Thermo, San Jose, Calif.) based on the SEQUEST algorithm. Carbamidomethylation (+57.021 Da) of cysteines was fixed modification, and Oxidation and Deamidation Q/N-deamidated (+0.98402 Da) were set as dynamic modifications. The minimum peptide length was specified to be five amino acids. […]
# cGAS [4] = assay: In vitro deamidation assay (cGAS); format: biochemical, mouse; conditions: purified proteins
# Method: The in vitro deamidation assay was performed as previously described. Briefly, 5 μg of purified MBP-mcGAS or MBP-mcGAS-DDEE mutant on amylose resin was incubated with 0.5 gig of purified FLAG-UL37 or FLAG-UL37C819S at 30° C. for 45 min in deamidation buffer (50 mM Tris-HCl [pH 7.5], 100 mM NaCl, and 5 mM MgCl2). Then the reaction was stopped by adding rehydration buffer and the eluted proteins were analyzed by two-dimensional gel electrophoresis.
# cGAS [5] = biological target: T2, cGAS (Mus musculus, UniProt Q8C6L5); assay: In vitro cGAMP activity assay; format: biochemical; conditions: in vitro cGAMP reaction
# T2 construct: Purified mcGAS(141-507) was deamidated by purified FLAG-UL37 in vitro; made in house; host or cells: E. coli BL21 (DE3)
# T2 sequence (Q8C6L5 141-507): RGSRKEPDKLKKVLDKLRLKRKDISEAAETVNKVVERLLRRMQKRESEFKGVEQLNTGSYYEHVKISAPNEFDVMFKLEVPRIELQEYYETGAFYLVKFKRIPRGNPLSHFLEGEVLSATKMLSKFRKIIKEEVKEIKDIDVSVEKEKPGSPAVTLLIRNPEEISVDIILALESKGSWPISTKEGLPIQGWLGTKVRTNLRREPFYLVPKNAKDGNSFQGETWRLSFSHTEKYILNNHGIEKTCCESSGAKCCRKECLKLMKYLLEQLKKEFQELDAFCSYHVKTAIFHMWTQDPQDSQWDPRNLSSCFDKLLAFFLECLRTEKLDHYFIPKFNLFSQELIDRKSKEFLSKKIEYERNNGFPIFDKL
# Method: 1 μM of MBP-cGAS or mutant proteins was mixed with 100 μM ATP and 100 μM GTP and 10 μCi [α-P32]-ATP in reaction buffer (20 mM Tris-Cl [pH 7.5], 150 mM NaCl, 5 mM MgCl2, 1 mM dithiothreitol [DTT]). After 2 h of incubation at 37° C., 2 μl of reaction solution was spotted onto PEI-Cellulose thin layer chromatography plate (Sigma). Reaction products were resolved with running buffer (1 M (NH4)2SO4, 1.5 M KH2PO4, pH 3.8). The TLC plates were dried and scanned with Phosphoimager (Fuji).
# [6] = system: interferon-stimulating DNA (ISD); assay: Precipitation of biotinylated interferon-stimulating DNA (ISD) with cGAS; format: binding
substance,measurement,setting,value
"UL37: HSV-1 UL37 tegument protein, a protein deamidase; SEQ ID NO. 1",reduction of IFN-β secretion,IFN-β,~75%
same,RIG-I deamidation in vitro,RIG-I,sufficient to reduce RIG-I charge
same,intracellular cGAMP,cGAS [1],~35 ng per one million THP-1 cells
same,reduction of IFNB1 and ISG56 expression,"cGAS [2]; THP-1 cells, HT-DNA transfection, UL37 expression",~60%
same,"effect on expression of IFNB1, ISG56 and CXCL10 induced by HT-DNA",cGAS [2]; THP-1 stable cell lines,"potently reduced the expression of IFNB1, ISG56 and CXCL10"
same,increase of deamidation of the four cGAS sites,cGAS [3],2-3 fold
same,cGAS deamidation in vitro (2DGE shift),cGAS [4],shifted cGAS toward the positive end of the gel strip
same,effect of added UL37 on cGAS-mediated cGAMP production,cGAS [5],greatly reduced cGAS-mediated cGAMP production
same,increase of the interaction between cGAS and ISD,[6],~50%
